Here are results for 29 molecules from US8778966B2, “Quinolinone derivatives as PARP and tank inhibitors” (Janssen Pharmaceutica, NV, priority 2007, dated 2014).

The target in the test is T1, TANK-2 enzyme (Homo sapiens, UniProt Q9H2K2).
T1 construct: made in house
T1 sequence (Q9H2K2 1-1166): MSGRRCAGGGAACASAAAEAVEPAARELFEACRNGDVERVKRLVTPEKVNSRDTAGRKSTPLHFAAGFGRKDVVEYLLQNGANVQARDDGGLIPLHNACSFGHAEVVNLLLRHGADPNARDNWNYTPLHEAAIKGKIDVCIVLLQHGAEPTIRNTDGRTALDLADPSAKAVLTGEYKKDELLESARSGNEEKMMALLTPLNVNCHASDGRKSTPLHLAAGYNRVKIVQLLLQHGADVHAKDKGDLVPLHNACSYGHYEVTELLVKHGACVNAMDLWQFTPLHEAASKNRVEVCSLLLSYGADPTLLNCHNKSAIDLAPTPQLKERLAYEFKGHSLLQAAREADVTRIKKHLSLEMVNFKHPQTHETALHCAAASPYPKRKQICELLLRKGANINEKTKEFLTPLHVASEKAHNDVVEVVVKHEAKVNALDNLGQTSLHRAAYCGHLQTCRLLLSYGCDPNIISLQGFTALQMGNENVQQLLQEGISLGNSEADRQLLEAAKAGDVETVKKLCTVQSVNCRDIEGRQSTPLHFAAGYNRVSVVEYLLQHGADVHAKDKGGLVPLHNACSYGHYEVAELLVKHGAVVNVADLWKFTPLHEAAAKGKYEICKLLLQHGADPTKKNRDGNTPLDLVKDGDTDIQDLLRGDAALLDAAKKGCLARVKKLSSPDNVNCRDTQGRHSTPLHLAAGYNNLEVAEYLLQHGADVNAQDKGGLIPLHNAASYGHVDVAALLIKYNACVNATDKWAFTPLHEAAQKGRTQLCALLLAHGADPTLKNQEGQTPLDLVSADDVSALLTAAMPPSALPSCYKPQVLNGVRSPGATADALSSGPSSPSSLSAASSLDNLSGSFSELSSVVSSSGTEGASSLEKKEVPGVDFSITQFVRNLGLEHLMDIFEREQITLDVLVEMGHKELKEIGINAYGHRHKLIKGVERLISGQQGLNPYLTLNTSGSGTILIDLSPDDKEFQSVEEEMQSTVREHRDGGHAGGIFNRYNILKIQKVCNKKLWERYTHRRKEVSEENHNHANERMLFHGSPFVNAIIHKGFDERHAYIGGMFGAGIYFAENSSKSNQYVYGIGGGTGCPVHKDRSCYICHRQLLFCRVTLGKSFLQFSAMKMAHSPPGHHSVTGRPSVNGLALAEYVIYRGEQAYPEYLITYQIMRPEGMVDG
The test is described as follows: In vitro Scintillation Proximity Assay (SPA) for TANK-2 inhibitory activity. The class given is biochemical. To be noted: read-out: in vitro SPA assay TANK-2 pIC50 (converted). An outline of the steps: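 Results are pIC50 values, with IC50 interpolated linearly around 50% of blank-subtracted control cpm. They come from a scintillation proximity read of TANK-2 (8 μg/ml) self-modification with [3H]-NAD+/NAD, incubated 120 min at room temperature in pH 7.4 Tris buffer containing MgCl2 and DTT. Compounds were first screened at 10^−5 M.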
Background: SPA uses beads or plates that emit light when radiolabelled molecules are held near them.

For `CCc1cc2ccc(C(C)(C#N)CCOc3ccc(F)cc3)cc2[nH]c1=O` (centres unmarked) [Compound 144], the IC50 was 100 nM. The same measure for `CCc1cc2ccc(C(C)(C#N)CCOc3ccccc3)cc2[nH]c1=O` (centres unmarked) [Compound 145]: 50.1 nM; for `CCc1cc2ccc(C(C)(C#N)CCOc3ccc(Cl)cc3)cc2[nH]c1=O` (centres unmarked) [Compound 146]: 158 nM; for `CCc1cc2ccc(C(C)(C#N)CCOc3ccc(OC)cc3)cc2[nH]c1=O` (centres unmarked) [Compound 147]: 79.4 nM.

On to `CCc1cc2ccc(C(C)(C#N)CCOc3ccccc3C)cc2[nH]c1=O` (centres unmarked) [Compound 148], for which the IC50 was 100 nM.

In the case of `CCc1cc2ccc(C(C)(C#N)CCOc3ccc(C)cc3)cc2[nH]c1=O` (centres unmarked) [Compound 149], the IC50 is 200 nM. The same measure for `CCc1cc2ccc(C(C)(C#N)CCOc3cccc(Cl)c3)cc2[nH]c1=O` (centres unmarked) [Compound 151]: 200 nM.

With `CCc1cc2ccc(C(C)(C#N)CCOc3ccccc3Cl)cc2[nH]c1=O` (centres unmarked) [Compound 152], the IC50 is 126 nM. Consider `CCc1cc2ccc(C(C)(C#N)CCOc3ccccc3Br)cc2[nH]c1=O` (centres unmarked) [Compound 153], for which the IC50 is 79.4 nM.

Regarding `CCc1cc2ccc(C(C)(C#N)CCOc3ccc(Cl)cc3Cl)cc2[nH]c1=O` (centres unmarked) [Compound 154], the IC50 is 200 nM. The same measure for `CCc1cc2ccc(C(C)(C#N)CCOc3ccc(SC)cc3)cc2[nH]c1=O` (centres unmarked) [Compound 155]: 126 nM. The same measure for `CCc1cc2ccc(C(C)(C#N)CC3CN(C)c4ccccc4O3)cc2[nH]c1=O` (centres unmarked) [Compound 156]: 398 nM; for `CCc1cc2ccc(C(C)(C#N)CCOc3ccc4ccccc4c3)cc2[nH]c1=O` (centres unmarked) [Compound 157]: 316 nM; for `CCc1cc2ccc(C(C)(C#N)CCOc3cccc4ccccc34)cc2[nH]c1=O` (centres unmarked) [Compound 158]: 501 nM. The same measure for `CCc1cc2ccc(C(C)(C#N)CCOc3ccccc3C(C)=O)cc2[nH]c1=O` (centres unmarked) [Compound 159]: 251 nM; for `CCc1cc2ccc(C(C)(C#N)CCOc3ccc(Br)cc3)cc2[nH]c1=O` (centres unmarked) [Compound 160]: 316 nM; for `CCc1cc2ccc(C(C)(C#N)CCOc3ccc(C#N)cc3)cc2[nH]c1=O` (centres unmarked) [Compound 161]: 158 nM. In the case of `CCc1cc2ccc(C(C)(C#N)CCOc3ccc4oc(C)c(C)c4c3)cc2[nH]c1=O` (centres unmarked) [Compound 162], the IC50 is 158 nM. On to `CCc1cc2ccc(C(C)(C#N)CCOc3cccc4c3OCCO4)cc2[nH]c1=O` (centres unmarked) [Compound 163], for which the IC50 is 200 nM.

As for `CCc1cc2ccc(C(C)(C#N)Cc3cccc(CCC#N)c3)cc2[nH]c1=O` (centres unmarked) [Compound 165], the IC50 is 79.4 nM.

In the case of `CCc1cc2ccc(C(C#N)(CCOc3ccccc3)C3CC3)cc2[nH]c1=O` (centres unmarked) [Compound 166], the IC50 was 126 nM. Consider `CCc1cc2ccc(C(C)(C#N)CCOc3ccc(C(C)(C)C)cc3)cc2[nH]c1=O` (centres unmarked) [Compound 167], for which the IC50 is 794 nM. With `CCc1cc2ccc(C(C)(C#N)CC#Cc3cccc(F)c3)cc2[nH]c1=O` (centres unmarked) [Compound 184], the IC50 was 2510 nM.

Turning to `Cc1cc2ccc([C@@](C)(C#N)[C@@H]3CCc4cc(C#N)ccc43)cc2[nH]c1=O` [Compound 245], the IC50 is 1000 nM. As to `CCc1cc2ccc([C@](C)(C#N)C[C@@H]3CCc4cc(C)ccc4O3)cc2[nH]c1=O` [Compound 251], the IC50 is 316 nM. In the case of `CCc1cc2ccc([C@@](C)(C#N)C[C@@H]3CCc4cc(C)ccc4O3)cc2[nH]c1=O` [Compound 252], the IC50 is 794 nM. Regarding `CCc1cc2ccc(C(C#N)(CC)CCOc3ccc(C#N)cc3)cc2[nH]c1=O` (centres unmarked) [Compound 271], the IC50 was 501 nM. Take `Cc1cc2ccc([C@@](C)(C#N)[C@H]3CCc4cc(C#N)ccc43)cc2[nH]c1=O` [Compound 389]: the IC50 is 3160 nM. On to `CCc1cc2ccc(C(C#N)(CC)C3CCc4ccc(F)cc43)cc2[nH]c1=O` (centres unmarked) [Compound 391], for which the IC50 was 631 nM.
